# Assays:
# [1] = Thermodynamic aqueous solubility of compound in phosphate buffer at pH 7.4 by reversed-phase ultrahigh pressure liquid chromatography; type: physicochemical; conditions: phosphate buffer, read-out: Therm_solubility
# Cytochrome P450 1A2 = target: T1, Cytochrome P450 1A2 (Homo sapiens, UniProt P05177); assay: Inhibition of CYP1A2 (unknown origin)
# T1 sequence (P05177 whole entry): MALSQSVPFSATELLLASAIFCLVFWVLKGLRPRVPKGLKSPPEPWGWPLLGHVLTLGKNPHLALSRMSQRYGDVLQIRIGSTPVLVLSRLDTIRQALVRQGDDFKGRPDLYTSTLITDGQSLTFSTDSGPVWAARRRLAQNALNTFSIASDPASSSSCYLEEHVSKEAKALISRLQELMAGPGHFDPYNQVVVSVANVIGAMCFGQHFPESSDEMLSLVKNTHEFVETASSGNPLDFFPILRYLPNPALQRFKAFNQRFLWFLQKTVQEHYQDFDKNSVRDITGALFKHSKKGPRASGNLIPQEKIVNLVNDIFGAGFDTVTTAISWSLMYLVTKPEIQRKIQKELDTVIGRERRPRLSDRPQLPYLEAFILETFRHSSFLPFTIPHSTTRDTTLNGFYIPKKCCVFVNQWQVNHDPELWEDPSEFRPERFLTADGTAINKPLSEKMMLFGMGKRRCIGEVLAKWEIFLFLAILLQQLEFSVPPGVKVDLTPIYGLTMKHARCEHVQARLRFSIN
# [2] = Volume of distribution at steady state in Sprague-Dawley rat at 1 mg/kg, iv; type: ADME, organism-based; conditions: in vivo, read-out: Vdss
# Relaxin receptor 1 [3] = target: T2, Relaxin receptor 1 (Rattus norvegicus, UniProt Q6R6I6); assay: Agonist activity at rat RXFP1 stably expressed in HEK293 cells assessed as intracellular cAMP accumulation incubated for 30 mins by HTRF assay; type: cell-based
# T2 sequence (Q6R6I6 whole entry): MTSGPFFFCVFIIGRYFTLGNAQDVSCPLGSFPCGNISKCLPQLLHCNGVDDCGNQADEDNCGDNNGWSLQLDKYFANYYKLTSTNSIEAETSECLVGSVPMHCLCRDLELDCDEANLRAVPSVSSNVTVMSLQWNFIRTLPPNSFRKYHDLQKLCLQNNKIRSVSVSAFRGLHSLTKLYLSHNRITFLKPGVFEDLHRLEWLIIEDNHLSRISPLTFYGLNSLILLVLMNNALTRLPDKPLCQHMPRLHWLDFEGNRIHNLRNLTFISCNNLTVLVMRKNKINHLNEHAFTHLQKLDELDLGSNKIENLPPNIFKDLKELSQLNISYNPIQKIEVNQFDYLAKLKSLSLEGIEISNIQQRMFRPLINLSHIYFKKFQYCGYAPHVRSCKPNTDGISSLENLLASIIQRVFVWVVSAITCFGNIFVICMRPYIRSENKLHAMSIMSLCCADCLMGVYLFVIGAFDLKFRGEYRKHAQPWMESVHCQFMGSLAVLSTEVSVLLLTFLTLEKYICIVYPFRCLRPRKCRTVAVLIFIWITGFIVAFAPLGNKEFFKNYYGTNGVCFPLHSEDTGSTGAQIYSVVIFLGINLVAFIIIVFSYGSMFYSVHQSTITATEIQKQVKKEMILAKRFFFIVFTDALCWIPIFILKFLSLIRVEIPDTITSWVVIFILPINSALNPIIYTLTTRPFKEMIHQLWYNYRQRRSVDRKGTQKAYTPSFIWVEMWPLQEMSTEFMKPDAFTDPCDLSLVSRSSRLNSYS
# Relaxin receptor 1 [4] = target: T3, Relaxin receptor 1 (Mus musculus, UniProt Q6R6I7); assay: Agonist activity at mouse RXFP1 stably expressed in HEK293 cells assessed as intracellular cAMP accumulation incubated for 30 mins by HTRF assay; type: functional, cell-based
# T3 sequence (Q6R6I7 whole entry): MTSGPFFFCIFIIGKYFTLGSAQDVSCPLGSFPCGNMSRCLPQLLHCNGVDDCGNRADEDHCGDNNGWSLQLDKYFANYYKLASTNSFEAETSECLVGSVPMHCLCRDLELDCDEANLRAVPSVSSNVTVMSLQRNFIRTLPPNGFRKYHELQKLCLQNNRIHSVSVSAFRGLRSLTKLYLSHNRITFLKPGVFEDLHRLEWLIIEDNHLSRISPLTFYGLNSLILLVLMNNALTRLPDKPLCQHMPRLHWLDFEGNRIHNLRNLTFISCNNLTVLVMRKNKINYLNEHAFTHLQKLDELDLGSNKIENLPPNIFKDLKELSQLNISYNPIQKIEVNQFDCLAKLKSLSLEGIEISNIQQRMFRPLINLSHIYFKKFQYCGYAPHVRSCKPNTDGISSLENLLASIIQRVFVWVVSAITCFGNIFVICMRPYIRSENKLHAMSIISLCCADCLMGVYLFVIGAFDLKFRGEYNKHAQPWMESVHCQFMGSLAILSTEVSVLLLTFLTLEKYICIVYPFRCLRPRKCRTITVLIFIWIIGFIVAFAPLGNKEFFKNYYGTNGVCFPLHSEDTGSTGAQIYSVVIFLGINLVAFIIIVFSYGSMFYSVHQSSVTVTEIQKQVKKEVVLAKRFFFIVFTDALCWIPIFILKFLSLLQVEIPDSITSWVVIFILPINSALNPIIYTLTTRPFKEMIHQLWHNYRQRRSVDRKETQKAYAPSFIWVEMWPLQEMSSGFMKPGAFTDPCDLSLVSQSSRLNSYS
# [5] = Microsomal stability in rat liver microsomes assessed as half life; type: ADME, Microsome
# Rattus norvegicus = assay: Chronotropic effect in isoflurane-anesthetized male naive Sprague-Dawley rat model assessed as increase in heart rate at 5 mg/kg/min, iv measured after 60 mins; type: functional; conditions: 1 h
# Nav1.5 = Nav1.5 (Homo sapiens, UniProt Q14524); assay: Inhibition of human Nav1.5 at 10 uM by patch clamp assay relative to control
# [6] = Clearance in Sprague-Dawley rat at 1 mg/kg, iv; type: ADME, organism-based; conditions: in vivo
# Sequence of Nav1.5 (Q14524 whole entry): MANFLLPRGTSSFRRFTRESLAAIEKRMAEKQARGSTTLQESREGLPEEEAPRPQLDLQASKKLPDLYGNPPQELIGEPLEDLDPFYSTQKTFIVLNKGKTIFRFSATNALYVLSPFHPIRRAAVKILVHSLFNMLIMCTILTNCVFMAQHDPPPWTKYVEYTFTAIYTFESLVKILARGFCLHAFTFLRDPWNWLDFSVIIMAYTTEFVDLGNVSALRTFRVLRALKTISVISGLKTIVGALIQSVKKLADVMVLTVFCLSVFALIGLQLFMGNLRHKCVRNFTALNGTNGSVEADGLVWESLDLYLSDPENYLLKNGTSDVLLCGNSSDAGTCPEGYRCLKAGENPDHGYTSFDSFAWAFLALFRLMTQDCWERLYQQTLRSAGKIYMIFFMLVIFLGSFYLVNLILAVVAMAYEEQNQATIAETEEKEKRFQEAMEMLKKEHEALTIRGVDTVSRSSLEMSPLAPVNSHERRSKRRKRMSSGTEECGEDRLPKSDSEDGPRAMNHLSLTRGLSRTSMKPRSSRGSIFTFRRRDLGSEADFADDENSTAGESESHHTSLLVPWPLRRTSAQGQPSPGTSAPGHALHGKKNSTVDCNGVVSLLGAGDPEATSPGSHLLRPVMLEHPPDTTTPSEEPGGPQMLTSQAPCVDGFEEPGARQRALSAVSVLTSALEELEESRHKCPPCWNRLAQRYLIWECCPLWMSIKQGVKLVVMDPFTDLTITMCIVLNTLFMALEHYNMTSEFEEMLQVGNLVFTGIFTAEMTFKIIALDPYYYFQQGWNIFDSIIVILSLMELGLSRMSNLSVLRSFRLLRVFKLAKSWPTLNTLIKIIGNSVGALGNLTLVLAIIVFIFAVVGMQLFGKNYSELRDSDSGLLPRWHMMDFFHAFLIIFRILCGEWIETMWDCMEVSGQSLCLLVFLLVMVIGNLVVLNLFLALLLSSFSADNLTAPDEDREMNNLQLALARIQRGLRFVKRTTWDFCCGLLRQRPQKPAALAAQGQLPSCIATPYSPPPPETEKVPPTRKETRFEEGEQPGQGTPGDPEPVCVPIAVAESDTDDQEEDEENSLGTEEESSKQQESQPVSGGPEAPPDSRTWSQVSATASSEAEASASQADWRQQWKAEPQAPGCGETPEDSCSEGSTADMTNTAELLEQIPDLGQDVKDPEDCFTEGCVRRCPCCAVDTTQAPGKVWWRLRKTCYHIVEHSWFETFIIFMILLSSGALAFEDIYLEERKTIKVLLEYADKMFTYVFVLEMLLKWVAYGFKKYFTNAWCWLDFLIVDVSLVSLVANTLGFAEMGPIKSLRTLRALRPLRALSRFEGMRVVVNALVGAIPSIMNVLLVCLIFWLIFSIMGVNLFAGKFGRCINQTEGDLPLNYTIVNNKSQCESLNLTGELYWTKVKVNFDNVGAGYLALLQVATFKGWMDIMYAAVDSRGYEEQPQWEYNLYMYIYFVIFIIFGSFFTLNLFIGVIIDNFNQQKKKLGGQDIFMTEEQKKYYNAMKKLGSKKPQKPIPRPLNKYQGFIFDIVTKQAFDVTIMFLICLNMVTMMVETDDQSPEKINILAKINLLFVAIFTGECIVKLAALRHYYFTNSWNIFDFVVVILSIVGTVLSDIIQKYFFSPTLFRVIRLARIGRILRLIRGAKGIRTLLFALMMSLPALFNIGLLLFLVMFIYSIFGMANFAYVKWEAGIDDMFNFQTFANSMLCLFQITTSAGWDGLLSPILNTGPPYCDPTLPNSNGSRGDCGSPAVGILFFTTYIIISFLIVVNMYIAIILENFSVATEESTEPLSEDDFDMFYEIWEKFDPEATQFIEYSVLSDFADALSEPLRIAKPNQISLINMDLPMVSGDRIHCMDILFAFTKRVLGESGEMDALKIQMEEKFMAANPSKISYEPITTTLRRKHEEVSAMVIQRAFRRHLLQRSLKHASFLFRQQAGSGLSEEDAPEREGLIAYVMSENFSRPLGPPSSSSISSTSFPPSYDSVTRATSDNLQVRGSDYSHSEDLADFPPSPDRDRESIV
smiles,measurement,setting,value
CNC(=O)OC(C(=O)O)c1ccc(F)c(-c2ccc(OC)c(C(=O)N[C@H]3[C@@H](C(=O)Nc4ccc(F)c(C(F)(F)F)c4)[C@H]4CC[C@@H]3/C4=C\C3CC3)c2)c1 (stereo in doubt; 39),solubility thermodynamic,[1],130 µg/mL
same,IC50,Cytochrome P450 1A2,4600 nM
same,Vd,[2],0.09 L/kg
same,EC50,Relaxin receptor 1 [3],45 nM
same,EC50,Relaxin receptor 1 [4],30 nM
same,half-life,[5],> 2 h
same,Activity,Rattus norvegicus,25%
same,inhibition at 10 µM,Nav1.5,59%
same,clearance,[6],2.5 mL/min/kg

# — ChEMBL document CHEMBL6182920, “The Discovery of C7-Substituted Norbornyl Bisamides as RXFP1 Small Molecule Agonists” (J Med Chem, 2025)
